The text below walks through data of ChEMBL document CHEMBL1126109 (J Med Chem, 1992).

Common to all, as to format: protein-complex assay
Assay [1] concerns the target Glutamate NMDA receptor. Briefly: Compound was evaluated for the inhibition of [3H]-CGS-19,755 binding at N-methyl-D-aspartate glutamate receptor.
Assay [2] concerns the target Glutamate NMDA receptor. Briefly: Compound was evaluated for the inhibition of [3H]norepinephrine binding at N-methyl-D-aspartate glutamate receptor.
Assay [3] addresses Glutamate NMDA receptor. Briefly: Compound was evaluated for the inhibition of [3H]MK-801 binding at N-methyl-D-aspartate glutamate receptor.

`N[C@]1(C(=O)O)C[C@@H](C(=O)O)C1`: at Glutamate NMDA receptor [1], the IC50 came to 0.163 µM. Further, the values for the concentration for a half-maximal effect (EC50) on Glutamate NMDA receptor [2] and on Glutamate NMDA receptor [3] were 16.5 µM and 0.18 µM, respectively.

For `NC(C(=O)O)c1nnn[nH]1` (racemic), on Glutamate NMDA receptor [1], the IC50 amounted to 0.098 µM. The EC50 at Glutamate NMDA receptor [2] came out at 2.03 µM; on Glutamate NMDA receptor [3] it was 0.07 µM.

With `N[C@@H](CC(=O)O)C(=O)O` [ASPARTIC ACID], the IC50 on Glutamate NMDA receptor [1] was found to be 1.64 µM.

`CN[C@H](CC(=O)O)C(=O)O` [N-METHYL-D-ASPARTIC ACID (NMDA)]: the half-maximal inhibitory concentration (IC50) on Glutamate NMDA receptor [1] came to 4.15 µM. Also, the EC50 was 75 µM at Glutamate NMDA receptor [2] and 6.86 µM at Glutamate NMDA receptor [3].

In general, IC50 refers to the concentration needed to halve the response being measured. Low readings indicate higher potency, high ones lower potency. A word on the EC50: it is the concentration that produces a half-maximal response. A high value points to a less potent agent.
